In the NIST ThermoML archive (doi:10.1016/j.jct.2008.06.017):
± gives the expanded uncertainty stated by the source.

How the values were obtained:
[1] = xn = mol fraction of the nth substance listed; conditions: Liquid, Vibrating tube method
[2] = Liquid, Vibrating tube method

C=C(C)C(=O)OCCCC [butyl 2-methyl-2-propenoate] + COC(=O)OC
[1]
Conditions | mass density [kg/m3]
293.15 K, x2 = 0 | 895.231 ± 0.11
293.15 K, x2 = 0.0253 | 897.401 ± 0.11
293.15 K, x2 = 0.0496 | 899.525 ± 0.11
293.15 K, x2 = 0.1 | 904.247 ± 0.1
293.15 K, x2 = 0.1512 | 909.195 ± 0.099
293.15 K, x2 = 0.2002 | 914.234 ± 0.095
293.15 K, x2 = 0.2501 | 919.652 ± 0.092
293.15 K, x2 = 0.3 | 925.514 ± 0.088
293.15 K, x2 = 0.3496 | 931.664 ± 0.085
293.15 K, x2 = 0.4002 | 938.381 ± 0.082
293.15 K, x2 = 0.45 | 945.36 ± 0.079
293.15 K, x2 = 0.4998 | 952.885 ± 0.076
293.15 K, x2 = 0.5499 | 960.906 ± 0.074
293.15 K, x2 = 0.6 | 969.499 ± 0.071
293.15 K, x2 = 0.6499 | 978.774 ± 0.07
293.15 K, x2 = 0.7003 | 988.865 ± 0.069
293.15 K, x2 = 0.7501 | 999.691 ± 0.068
293.15 K, x2 = 0.7998 | 1011.24 ± 0.072
293.15 K, x2 = 0.8502 | 1024.04 ± 0.076
293.15 K, x2 = 0.8997 | 1037.82 ± 0.082
293.15 K, x2 = 0.9499 | 1053.1 ± 0.087
293.15 K, x2 = 0.9747 | 1061.18 ± 0.091
303.15 K, x2 = 0 | 885.991 ± 0.11
303.15 K, x2 = 0.0255 | 888.128 ± 0.11
303.15 K, x2 = 0.0511 | 890.378 ± 0.11
303.15 K, x2 = 0.0984 | 894.561 ± 0.11
303.15 K, x2 = 0.1496 | 899.445 ± 0.1
303.15 K, x2 = 0.1998 | 904.542 ± 0.098
303.15 K, x2 = 0.251 | 909.93 ± 0.094
303.15 K, x2 = 0.3 | 915.538 ± 0.091
303.15 K, x2 = 0.3498 | 921.462 ± 0.087
303.15 K, x2 = 0.4002 | 927.876 ± 0.084
303.15 K, x2 = 0.4505 | 934.768 ± 0.081
303.15 K, x2 = 0.5001 | 942.022 ± 0.078
303.15 K, x2 = 0.5497 | 949.757 ± 0.076
303.15 K, x2 = 0.6003 | 958.326 ± 0.074
303.15 K, x2 = 0.6507 | 967.581 ± 0.072
303.15 K, x2 = 0.7003 | 977.274 ± 0.07
303.15 K, x2 = 0.7503 | 987.854 ± 0.069
303.15 K, x2 = 0.8003 | 999.303 ± 0.069
303.15 K, x2 = 0.8497 | 1011.72 ± 0.073
303.15 K, x2 = 0.8997 | 1025.31 ± 0.079
303.15 K, x2 = 0.95 | 1040.3 ± 0.083
303.15 K, x2 = 0.9746 | 1048.26 ± 0.088
313.15 K, x2 = 0 | 876.19 ± 0.12
313.15 K, x2 = 0.0248 | 878.23 ± 0.12
313.15 K, x2 = 0.0506 | 880.426 ± 0.11
313.15 K, x2 = 0.1009 | 884.856 ± 0.11
313.15 K, x2 = 0.1505 | 889.457 ± 0.1
313.15 K, x2 = 0.2003 | 894.361 ± 0.1
313.15 K, x2 = 0.2512 | 899.681 ± 0.097
313.15 K, x2 = 0.3005 | 905.153 ± 0.093
313.15 K, x2 = 0.3502 | 910.961 ± 0.09
313.15 K, x2 = 0.4009 | 917.353 ± 0.087
313.15 K, x2 = 0.4509 | 924.075 ± 0.084
313.15 K, x2 = 0.4999 | 931.103 ± 0.081
313.15 K, x2 = 0.5506 | 938.855 ± 0.078
313.15 K, x2 = 0.6 | 947.003 ± 0.076
313.15 K, x2 = 0.6502 | 955.954 ± 0.074
313.15 K, x2 = 0.7002 | 965.503 ± 0.072
313.15 K, x2 = 0.7503 | 975.976 ± 0.071
313.15 K, x2 = 0.7999 | 987.089 ± 0.071
313.15 K, x2 = 0.8501 | 999.417 ± 0.071
313.15 K, x2 = 0.8998 | 1012.69 ± 0.076
313.15 K, x2 = 0.9498 | 1027.3 ± 0.08
313.15 K, x2 = 0.9751 | 1035.15 ± 0.085

C=C(C)C(=O)OCCCC [butyl 2-methyl-2-propenoate]
[2]
Conditions | mass density [kg/m3]
293.15 K | 895.231 ± 0.11
303.15 K | 885.991 ± 0.12
313.15 K | 876.19 ± 0.12

C=COC(C)=O [vinyl acetate] + COC(=O)OC
[1]
Conditions | mass density [kg/m3]
293.15 K, x2 = 0 | 931.95 ± 0.067
293.15 K, x2 = 0.025 | 935.258 ± 0.071
293.15 K, x2 = 0.0504 | 938.581 ± 0.07
293.15 K, x2 = 0.1002 | 945.231 ± 0.069
293.15 K, x2 = 0.1537 | 952.421 ± 0.067
293.15 K, x2 = 0.1999 | 958.65 ± 0.065
293.15 K, x2 = 0.25 | 965.315 ± 0.064
293.15 K, x2 = 0.3001 | 972.123 ± 0.062
293.15 K, x2 = 0.3498 | 978.865 ± 0.061
293.15 K, x2 = 0.4002 | 985.701 ± 0.059
293.15 K, x2 = 0.4503 | 992.611 ± 0.058
293.15 K, x2 = 0.5 | 999.443 ± 0.057
293.15 K, x2 = 0.5502 | 1006.39 ± 0.058
293.15 K, x2 = 0.6001 | 1013.38 ± 0.059
293.15 K, x2 = 0.6495 | 1020.26 ± 0.061
293.15 K, x2 = 0.6934 | 1026.46 ± 0.062
293.15 K, x2 = 0.7501 | 1034.48 ± 0.064
293.15 K, x2 = 0.7971 | 1041.1 ± 0.065
293.15 K, x2 = 0.8499 | 1048.6 ± 0.067
293.15 K, x2 = 0.9002 | 1055.59 ± 0.069
293.15 K, x2 = 0.9493 | 1062.61 ± 0.071
293.15 K, x2 = 0.975 | 1066.22 ± 0.071
303.15 K, x2 = 0 | 919.089 ± 0.071
303.15 K, x2 = 0.025 | 922.4 ± 0.074
303.15 K, x2 = 0.0501 | 925.708 ± 0.074
303.15 K, x2 = 0.0999 | 932.33 ± 0.072
303.15 K, x2 = 0.15 | 939.009 ± 0.07
303.15 K, x2 = 0.1998 | 945.689 ± 0.068
303.15 K, x2 = 0.2499 | 952.431 ± 0.067
303.15 K, x2 = 0.3004 | 959.251 ± 0.065
303.15 K, x2 = 0.35 | 965.996 ± 0.064
303.15 K, x2 = 0.4003 | 972.857 ± 0.062
303.15 K, x2 = 0.4488 | 979.518 ± 0.061
303.15 K, x2 = 0.4999 | 986.544 ± 0.059
303.15 K, x2 = 0.5496 | 993.403 ± 0.058
303.15 K, x2 = 0.6 | 1000.41 ± 0.057
303.15 K, x2 = 0.6489 | 1007.22 ± 0.058
303.15 K, x2 = 0.6986 | 1014.13 ± 0.059
303.15 K, x2 = 0.7494 | 1021.26 ± 0.061
303.15 K, x2 = 0.8 | 1028.36 ± 0.062
303.15 K, x2 = 0.8496 | 1035.38 ± 0.064
303.15 K, x2 = 0.8999 | 1042.51 ± 0.066
303.15 K, x2 = 0.9496 | 1049.56 ± 0.067
303.15 K, x2 = 0.9753 | 1053.22 ± 0.068
313.15 K, x2 = 0 | 906.116 ± 0.075
313.15 K, x2 = 0.0248 | 909.387 ± 0.078
313.15 K, x2 = 0.0501 | 912.718 ± 0.077
313.15 K, x2 = 0.1003 | 919.392 ± 0.075
313.15 K, x2 = 0.1499 | 925.976 ± 0.073
313.15 K, x2 = 0.2001 | 932.73 ± 0.072
313.15 K, x2 = 0.25 | 939.446 ± 0.07
313.15 K, x2 = 0.2999 | 946.16 ± 0.068
313.15 K, x2 = 0.3502 | 953.002 ± 0.067
313.15 K, x2 = 0.3999 | 959.753 ± 0.065
313.15 K, x2 = 0.45 | 966.575 ± 0.063
313.15 K, x2 = 0.4996 | 973.402 ± 0.062
313.15 K, x2 = 0.5501 | 980.351 ± 0.06
313.15 K, x2 = 0.5998 | 987.189 ± 0.059
313.15 K, x2 = 0.6502 | 994.195 ± 0.058
313.15 K, x2 = 0.7 | 1001.12 ± 0.057
313.15 K, x2 = 0.7501 | 1008.14 ± 0.058
313.15 K, x2 = 0.7999 | 1015.14 ± 0.059
313.15 K, x2 = 0.8499 | 1022.15 ± 0.061
313.15 K, x2 = 0.8995 | 1029.12 ± 0.062
313.15 K, x2 = 0.9501 | 1036.31 ± 0.064
313.15 K, x2 = 0.9746 | 1039.75 ± 0.065

COC(=O)OC [dimethyl carbonate] + C=CCOC(=O)C(=C)C
[1], x1 = 1
Conditions | mass density [kg/m3]
293.15 K | 1069.79 ± 0.067
303.15 K | 1056.75 ± 0.063
313.15 K | 1043.37 ± 0.06

C=CCOC(=O)C(=C)C [2-propenyl 2-methylpropenoate]
[2]
Conditions | mass density [kg/m3]
293.15 K | 932.965 ± 0.14
303.15 K | 922.525 ± 0.14
313.15 K | 912.072 ± 0.15

C=COC(C)=O [vinyl acetate]
[2]
Conditions | mass density [kg/m3]
293.15 K | 931.95 ± 0.068
303.15 K | 919.089 ± 0.072
313.15 K | 906.116 ± 0.076
